Laboratory results reported in EP4781986A1, “PHARMACEUTICAL COMPOSITION HAVING IMPROVED PHARMACOKINETIC PROPERTIES” (Sichuan Purity Pharmaceutical Co., Ltd., priority 2023, dated 2025).

Tests used:
[1] = PK properties in SD rats with or without 0.2% alkyl glycoside (DDM); format: in vivo; conditions: for Tmax: rat, in vivo; for Tmax shortened by: 0.2% DDM vs without DDM; for Tmax(DDM 0.2%)/ Tmax(DDM 0%): 0.2% dodecyl-β-D-maltoside (DDM) vs without DDM
From the text: During preparation of a test sample in the Test Example 5, a drug solution group with 0.2% dodecyl-β-D-maltoside (DDM) was also established and prepared in parallel, so as to compare and observe changes of PK properties in rats administered with the drug solution group with 0.2% dodecyl-β-D-maltoside (DDM) and the drug solution group without dodecyl-β-D-maltoside (DDM).

[2] = stability test in liver microsomes (human); format: in vitro ADME; conditions: Human liver microsomes, 60 min
Method: The stability of the compound of the present invention in liver microsomes of rat, monkey and human was determined. Tested compounds of the present invention were the compounds in Examples 6 and 8 , and a control drug was Zavegepant.
3.2 An appropriate amount of liver microsome solution was transferred into a 1 mL 96-deep-well plate, added with a tested drug liquid (or a probe substrate solution), and pre-incubated in a thermal mixer at 37°C for 5 minutes. Two parts of mixed solutions were taken out from the system and added with 1×PBS to replace NADPH, and the mixed solutions were taken out at 0 and 60 minutes respectively, and added with methanol (containing an internal standard) to terminate the reaction. In the remaining mixed system, each well was added with NADPH to start the reaction. In the tested substance group, mixed solutions were taken out from the system at 0, 5, 15, 30, 45 and 60 minutes, and in the control group, mixed solutions were taken out from the system at 0, 30 and 60 minutes, and the mixed solutions were added methanol (containing an internal standard) to terminate the reaction. All samples of the terminated reaction were mixed evenly and centrifuged in a centrifuge at 3800 rpm for 15 minutes, and the supernatant was taken for LC-MS/MS analysis.
A peak area was determined by an extracted ion chromatogram. A slope value k was determined by linear regression of a remaining percentage of a parent drug relative to a natural logarithm of an incubation time curve. According to the slope, in-vitro half-life periods (t1/2) were respectively calculated, and in-vitro intrinsic clearance rates (CLint, represented by µL/min/mg protein) were calculated. Calculation formulas were as follows: t1/2 = ln2/k = 0.693/k; and CLint = 0.693/t1/2 /liver microsome protein concentration [formula]

Plasma of human = assay: plasma protein binding rate test, equilibrium dialysis (human); format: in vitro ADME; conditions: 1 µM, 37°C, 6 hours
Method: Protein binding rates of the compound of the present invention in plasma of rat, monkey and human were determined by an equilibrium dialysis method. Tested compounds of the present invention were the compounds in Examples 6 and 8.
3.1 A dry dialysis membrane was rinsed with ultrapure water for 2-3 times, and then soaked in a phosphate buffer for 1 hour for later use. Polytetrafluoroethylene module was soaked in 20% ethanol for 30 minutes, and then surface moisture was dried with dust-free paper for later use. The pretreated dialysis membrane was assembled into a dialysis plate according to the product specification, and one side (receptor compartment) of an osmotic membrane in each dialysis well was added with 100 µL of receptor fluid (100 mM phosphate buffer solution plus 0.002% Tween 80).
3.2 The plasma was put into a centrifuge tube, a working solution of a tested substance was added into the plasma, wherein a final concentration was 1 µM, and the mixture was turned upside down and mixed evenly (this step was carried out in ice bath). 20 µL of drug-containing plasma each was taken, and was respectively transferred to a 96-well sample plate according to two parts in parallel, and stored in a refrigerator at -20°C as a T0 sample.
3.3 Another 100 µL of the above drug-containing plasma was transferred to the other side (sample compartment) of the membrane in the dialysis device according to two parts in parallel, and incubated under vibration at a constant temperature of 37°C for 6 hours. […]
A plasma protein binding rate and a recovery rate of the compound in plasma were calculated by the following formulas: dissociation percentage (%) = CB /CA; [formula] plasma protein binding rate (fb%) = 1−dissociation percentage (%); [formula] recovery rate (%) = (CB+CA)/CT0 [formula] wherein CB was a concentration of the compound in the receptor fluid after equilibrium dialysis; CA was a concentration of the compound in the drug-containing plasma after equilibrium dialysis; and CT0 was an initial concentration of the compound in plasma.

Row | Tmax ([1]; Sprague-Dawley, inhaled or intranasal, 0.2% DDM) | Tmax ([1]; Sprague-Dawley, inhaled or intranasal, not added with DDM (0%DDM)) | Structure (SMILES) | Tmax shortened by ([1]; intranasal) | Tmax(DDM 0.2%)/ Tmax(DDM 0%) ([1]; intranasal) | % remaining (60 min) [2] | fb (%) (Plasma of human) | Tmax ([1]; intranasal, 0.2% DDM) | Tmax ([1]; intranasal, not added with DDM (0%DDM))
1 | 10 min | 12.5 min | Cc1cc(C[C@@H](NC(=O)N2CCC(c3cc4c([nH]c3=O)SCC4)CC2)C(=O)N2CCN(C3CCN(C)CC3)CC2)cc2cn[nH]c12 [Example 8, (R)-N-(3-(7-methyl-1H-indazole-5-yl)-1-(4-(1-methylpiperidine-4-yl)piperazine-1-yl)-1-oxopropan-2-yl)-4-(6-oxo-2,3,6,7-tetrahydrothieno[2,3-b]pyridine-5-yl)piperidine-1-formamide] | 20.1% | 79.9% | 85.8% | 64.1% |  | 
2 |  |  | Cc1cc(C[C@@H](NC(=O)N2CCC(c3cc4c([nH]c3=O)SCCC4)CC2)C(=O)N2CCN(C3CCN(C)CC3)CC2)cc2cn[nH]c12 [Example 6, (R)-N-(3-(7-methyl-1H-indazole-5-yl)-1-(4-(1-methylpiperidine-4-yl)piperazine-1-yl)-1-oxopropan-2-yl)-4-(7-oxo-3,4,7,8-tetrahydro-2H-thiopyrano[2,3-b]pyridine-6-yl)piperidine-1-formamide] | 83.3% | 16.7% | 131% | 76.7% | 10 min | 60 min
